# Results as given in PubChem BioAssay (NCI).
#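 A five-concentration, 48-hour dose response in 96-well plates underlies each endpoint, interpolated linearly between surrounding concentrations. GI50 is the concentration that inhibits growth by half. At the TGI there is no net growth.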
# How the values were obtained:
# Assay in all cases: NCI-60 cell line screen, 48 h
# U251 CNS = system: U251 CNS
# SK-MEL-2 melanoma = system: SK-MEL-2 melanoma
# OVCAR-4 ovarian = system: OVCAR-4 ovarian
# OVCAR-3 ovarian = system: OVCAR-3 ovarian
# 786-0 renal = system: 786-0 renal
# SF-295 CNS = system: SF-295 CNS
# NCI-H522 lung = system: NCI-H522 lung
# HCT-15 colon = system: HCT-15 colon
# MALME-3M melanoma = system: MALME-3M melanoma
# OVCAR-5 ovarian = system: OVCAR-5 ovarian
SMILES,TGI (U251 CNS),TGI (SK-MEL-2 melanoma),TGI (OVCAR-4 ovarian),TGI (OVCAR-3 ovarian),TGI (786-0 renal),TGI (SF-295 CNS),TGI (NCI-H522 lung),TGI (HCT-15 colon),TGI (MALME-3M melanoma),TGI (OVCAR-5 ovarian),GI50 (U251 CNS),GI50 (SK-MEL-2 melanoma),GI50 (OVCAR-4 ovarian),GI50 (OVCAR-3 ovarian),GI50 (786-0 renal),GI50 (OVCAR-5 ovarian),GI50 (HCT-15 colon),GI50 (MALME-3M melanoma),GI50 (SF-295 CNS),GI50 (NCI-H522 lung)
CC1=CC(=O)C(C)(C2=NC(C)(C)CO2)c2ccccc21 (stereo not given),> 100 µM,> 100 µM,> 100 µM,> 100 µM,> 100 µM,> 100 µM,> 100 µM,> 100 µM,> 100 µM,,,,,,,,,,,
CC(=O)CC(=O)N(CCN(C(=O)CC(C)=O)c1ccccc1)c1ccccc1,> 100 µM,> 100 µM,> 100 µM,> 100 µM,> 100 µM,> 100 µM,> 100 µM,,> 100 µM,> 100 µM,,,,,,,,,,
COc1cccc(/C=C(/C(=O)O)c2cc(OC)c(OC)c(OC)c2)c1,> 100 µM,,> 100 µM,> 100 µM,> 100 µM,> 100 µM,> 100 µM,> 100 µM,> 100 µM,,,,,,,,,,,
COc1cc2[nH]c(C(=O)c3cc(OC)c(OC)c(OC)c3)c(N)c2cc1C#CCO,> 100 µM,> 100 µM,> 100 µM,0.243 µM,> 100 µM,,,> 100 µM,> 100 µM,> 100 µM,0.431 µM,0.485 µM,0.528 µM,0.0491 µM,0.373 µM,3.63 µM,0.432 µM,0.143 µM,,
O=C(O)C(=O)Cc1ccc2c(c1)OCO2,> 100 µM,> 100 µM,> 100 µM,> 100 µM,> 100 µM,> 100 µM,,> 100 µM,,> 100 µM,,,,,,,,,,
COc1ccc2[nH]c3c4c(c5cc(C(C)(C)C)ccc5c3c2c1)C(=O)N(c1ccccc1)C4=O,> 100 µM,> 100 µM,> 100 µM,> 100 µM,> 100 µM,> 100 µM,> 100 µM,,> 100 µM,> 100 µM,,,,,,,,,,
COc1cc(C(=O)C/C(CCC(=O)Nc2ccccc2[N+](=O)[O-])=N\NC(=O)C(N)=O)ccc1O,> 100 µM,> 100 µM,> 100 µM,> 100 µM,> 100 µM,> 100 µM,,> 100 µM,,> 100 µM,,,,,,,,,,
C[C@H](c1ccc(Cl)cc1N)N1C(=O)c2cc(I)ccc2N(CCCN2CCN(C)CC2)C(=O)[C@@H]1c1ccc(Cl)cc1,2.85 µM,3.37 µM,3.43 µM,3.28 µM,3.37 µM,,,3.2 µM,1.27 µM,3.44 µM,1.52 µM,1.81 µM,1.74 µM,1.8 µM,1.83 µM,1.77 µM,1.68 µM,0.242 µM,,
OCCN1CCN(CCO)Cc2ccccc2OCCOc2ccccc2C1,> 100 µM,> 100 µM,> 100 µM,> 100 µM,> 100 µM,,> 100 µM,> 100 µM,> 100 µM,> 100 µM,,,,,,,,,,
CC(C)(Cl)CCC1=C(Cl)C(=O)c2ccccc2C1=O,8.67 µM,4.97 µM,2.89 µM,3.17 µM,10.7 µM,11 µM,1.91 µM,3.05 µM,,5.6 µM,2.43 µM,2.43 µM,1.55 µM,1.72 µM,3.41 µM,2.25 µM,1.58 µM,,3.22 µM,0.586 µM
